Experimental data reported in patent US10681909B2, “Herbicidal triazoles” (FMC Corporation, priority 2014, dated 2020).

Experiments:
oilseed rape = assay: Test C postemergence; format: in vivo, Brassica napus
Outline: (§1)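 Surfactant-containing, non-phytotoxic solvent formulations of each compound were applied either preemergence to seeds in a loam soil–sand blend or postemergence to plants 2 to 18 cm tall (1- to 4-leaf stage). Postemergence plants were grown in peat moss–vermiculite medium.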

johnsongrass = assay: Test C postemergence; format: in vivo, Sorghum halepense
Outline: as §1

ragweed = assay: Test C postemergence; format: in vivo, Ambrosia elatior
Outline: as §1

morningglory = assay: Test C postemergence; format: in vivo, Ipomoea coccinea
Outline: as §1

crabgrass, large = assay: Test C postemergence; format: in vivo, Digitaria sanguinalis
Outline: as §1

nutsedge, yellow = assay: Test C postemergence; format: in vivo, Cyperus esculentus
Outline: as §1

pigweed [1] = assay: Test A postemergence; format: in vivo, Amaranthus retroflexus; settings: 0 to 100 scale (0 no effect, 100 complete control), approx. 10 d
Outline: (§2)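 Test chemicals in a non-phytotoxic solvent with surfactant were applied as a directed soil spray preemergence to seeds sown in loam/sand. Postemergence sprays went to plants 2–10 cm tall at the one- to two-leaf stage. A dash means no result.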

kochia = assay: Test C postemergence; format: in vivo, Kochia scoparia
Outline: as §1

foxtail, giant [2] = assay: Test A preemergence; format: in vivo, Setaria faberii; settings: 0 to 100 scale (0 no effect, 100 complete control)
Outline: as §2

barnyardgrass [3] = assay: Test B flooded paddy test; format: in vivo, Echinochloa crus-galli; settings: 250 g ai/ha, applied to paddy water at 2-leaf stage, visual rating after 13 to 15 d, scale 0 (no effect) to 100 (complete control)
Outline: (§3)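 Pots were flooded to 3 cm above the soil at treatment, and compounds were applied directly into the paddy water. That depth was held throughout. After 13 to 15 d in a greenhouse, plants were rated visually against untreated controls.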

barnyardgrass [4] = assay: Test A postemergence; format: in vivo, Echinochloa crus-galli; settings: 0 to 100 scale (0 no effect, 100 complete control), approx. 10 d
Outline: as §2

rice = assay: Test B flooded paddy test; format: in vivo, Oryza sativa; settings: 250 g ai/ha, applied to paddy water at 2-leaf stage, visual rating after 13 to 15 d, scale 0 (no effect) to 100 (complete control)
Outline: as §3

foxtail, giant [5] = assay: Test C postemergence; format: in vivo, Setaria faberii
Outline: as §1

corn = assay: Test A postemergence; format: in vivo, Zea mays; settings: 0 to 100 scale (0 no effect, 100 complete control), approx. 10 d
Outline: as §2

wheat (winter wheat) = assay: Test C postemergence; format: in vivo, Triticum aestivum
Outline: as §1

velvetleaf = assay: Test C postemergence; format: in vivo, Abutilon theophrasti
Outline: as §1

pigweed [6] = assay: Test C postemergence; format: in vivo, Amaranthus retroflexus
Outline: as §1

chickweed = assay: Test C postemergence; format: in vivo, Stellaria media
Outline: as §1

lambsquarters = assay: Test C postemergence; format: in vivo, Chenopodium album
Outline: as §1

oat, wild = assay: Test C postemergence; format: in vivo, Avena fatua
Outline: as §1

COc1nc(-c2ccc(C(F)(F)F)cc2)nn1Cc1ccnc(C(F)(F)F)c1 [Compound 25]
10: Plant response rating (scale of 0 to 100 where 0 is no effect and 100 is complete control) (johnsongrass; 31 g ai/ha) | Plant response rating (scale of 0 to 100 where 0 is no effect and 100 is complete control) (foxtail, giant [5]; 31 g ai/ha) | Plant response rating, Corn (corn; 31 g ai/ha) | Plant response rating (scale of 0 to 100 where 0 is no effect and 100 is complete control) (wheat (winter wheat); 250 g ai/ha) | Plant response rating (scale of 0 to 100 where 0 is no effect and 100 is complete control) (oat, wild; 31 g ai/ha)
30: Plant response rating (scale of 0 to 100 where 0 is no effect and 100 is complete control) (johnsongrass; 250 g ai/ha) | Plant response rating (scale of 0 to 100 where 0 is no effect and 100 is complete control) (crabgrass, large; 125 g ai/ha) | Plant response rating, Corn (corn; 125 g ai/ha)
45: Plant response rating (scale of 0 to 100 where 0 is no effect and 100 is complete control) (crabgrass, large; 250 g ai/ha)
60: Plant response rating, Barnyardgrass (barnyardgrass [4]; 125 g ai/ha)
85: Plant response rating (scale of 0 to 100 where 0 is no effect and 100 is complete control) (ragweed; 250 g ai/ha) | Plant response rating (scale of 0 to 100 where 0 is no effect and 100 is complete control) (morningglory; 62 g ai/ha) | Plant response rating (scale of 0 to 100 where 0 is no effect and 100 is complete control) (chickweed; 125 g ai/ha)
5: Plant response rating (scale of 0 to 100 where 0 is no effect and 100 is complete control) (wheat (winter wheat); 31 g ai/ha) | Plant response rating (scale of 0 to 100 where 0 is no effect and 100 is complete control) (wheat (winter wheat); 62 g ai/ha) | Plant response rating (scale of 0 to 100 where 0 is no effect and 100 is complete control) (wheat (winter wheat); 125 g ai/ha)
50: Plant response rating (scale of 0 to 100 where 0 is no effect and 100 is complete control) (velvetleaf; 62 g ai/ha) | Plant response rating (scale of 0 to 100 where 0 is no effect and 100 is complete control) (chickweed; 31 g ai/ha)
95: Plant response rating (scale of 0 to 100 where 0 is no effect and 100 is complete control) (morningglory; 250 g ai/ha) | Plant response rating (scale of 0 to 100 where 0 is no effect and 100 is complete control) (kochia; 250 g ai/ha)
70: Plant response rating, Foxtail, Giant (foxtail, giant [2]; 31 g ai/ha) | Plant response rating (scale of 0 to 100 where 0 is no effect and 100 is complete control) (velvetleaf; 125 g ai/ha)
35: Plant response rating, Barnyardgrass, Flood (barnyardgrass [3]) | Plant response rating (scale of 0 to 100 where 0 is no effect and 100 is complete control) (foxtail, giant [5]; 250 g ai/ha) | Plant response rating (scale of 0 to 100 where 0 is no effect and 100 is complete control) (velvetleaf; 31 g ai/ha) | Plant response rating (scale of 0 to 100 where 0 is no effect and 100 is complete control) (oat, wild; 250 g ai/ha)
15: Plant response rating (scale of 0 to 100 where 0 is no effect and 100 is complete control) (crabgrass, large; 31 g ai/ha)
20: Plant response rating (scale of 0 to 100 where 0 is no effect and 100 is complete control) (johnsongrass; 62 g ai/ha) | Plant response rating (scale of 0 to 100 where 0 is no effect and 100 is complete control) (johnsongrass; 125 g ai/ha) | Plant response rating (scale of 0 to 100 where 0 is no effect and 100 is complete control) (crabgrass, large; 62 g ai/ha) | Plant response rating (scale of 0 to 100 where 0 is no effect and 100 is complete control) (nutsedge, yellow; 31 g ai/ha) | Plant response rating (scale of 0 to 100 where 0 is no effect and 100 is complete control) (nutsedge, yellow; 62 g ai/ha) | Plant response rating, Barnyardgrass (barnyardgrass [4]; 31 g ai/ha) | Plant response rating (scale of 0 to 100 where 0 is no effect and 100 is complete control) (foxtail, giant [5]; 62 g ai/ha) | Plant response rating (scale of 0 to 100 where 0 is no effect and 100 is complete control) (foxtail, giant [5]; 125 g ai/ha) | Plant response rating (scale of 0 to 100 where 0 is no effect and 100 is complete control) (oat, wild; 62 g ai/ha)
98: Plant response rating (scale of 0 to 100 where 0 is no effect and 100 is complete control) (lambsquarters; 125 g ai/ha) | Plant response rating (scale of 0 to 100 where 0 is no effect and 100 is complete control) (lambsquarters; 250 g ai/ha)
65: Plant response rating (scale of 0 to 100 where 0 is no effect and 100 is complete control) (ragweed; 31 g ai/ha)
80: Plant response rating (scale of 0 to 100 where 0 is no effect and 100 is complete control) (ragweed; 62 g ai/ha)
25: Plant response rating (scale of 0 to 100 where 0 is no effect and 100 is complete control) (nutsedge, yellow; 125 g ai/ha) | Plant response rating (scale of 0 to 100 where 0 is no effect and 100 is complete control) (nutsedge, yellow; 250 g ai/ha) | Plant response rating, Rice, Flood (rice) | Plant response rating (scale of 0 to 100 where 0 is no effect and 100 is complete control) (oat, wild; 125 g ai/ha)
100: Plant response rating, Pigweed (pigweed [1]; 125 g ai/ha) | Plant response rating, Foxtail, Giant (foxtail, giant [2]; 125 g ai/ha) | Plant response rating (scale of 0 to 100 where 0 is no effect and 100 is complete control) (pigweed [6]; 31 g ai/ha) | Plant response rating (scale of 0 to 100 where 0 is no effect and 100 is complete control) (pigweed [6]; 62 g ai/ha) | Plant response rating (scale of 0 to 100 where 0 is no effect and 100 is complete control) (pigweed [6]; 125 g ai/ha) | Plant response rating (scale of 0 to 100 where 0 is no effect and 100 is complete control) (pigweed [6]; 250 g ai/ha) | Plant response rating (scale of 0 to 100 where 0 is no effect and 100 is complete control) (chickweed; 250 g ai/ha)
90: Plant response rating (scale of 0 to 100 where 0 is no effect and 100 is complete control) (oilseed rape; Oilsee Rape, 250 g ai/ha) | Plant response rating (scale of 0 to 100 where 0 is no effect and 100 is complete control) (oilseed rape; Oilseed Rape, 31 g ai/ha) | Plant response rating (scale of 0 to 100 where 0 is no effect and 100 is complete control) (oilseed rape; Oilseed Rape, 62 g ai/ha) | Plant response rating (scale of 0 to 100 where 0 is no effect and 100 is complete control) (oilseed rape; Oilseed Rape, 125 g ai/ha) | Plant response rating (scale of 0 to 100 where 0 is no effect and 100 is complete control) (morningglory; 31 g ai/ha) | Plant response rating, Pigweed (pigweed [1]; 31 g ai/ha) | Plant response rating (scale of 0 to 100 where 0 is no effect and 100 is complete control) (kochia; 31 g ai/ha) | Plant response rating (scale of 0 to 100 where 0 is no effect and 100 is complete control) (kochia; 62 g ai/ha) | Plant response rating (scale of 0 to 100 where 0 is no effect and 100 is complete control) (kochia; 125 g ai/ha) | Plant response rating (scale of 0 to 100 where 0 is no effect and 100 is complete control) (chickweed; 62 g ai/ha) | Plant response rating (scale of 0 to 100 where 0 is no effect and 100 is complete control) (lambsquarters; 31 g ai/ha) | Plant response rating (scale of 0 to 100 where 0 is no effect and 100 is complete control) (lambsquarters; 62 g ai/ha)
75: Plant response rating (scale of 0 to 100 where 0 is no effect and 100 is complete control) (ragweed; 125 g ai/ha) | Plant response rating (scale of 0 to 100 where 0 is no effect and 100 is complete control) (morningglory; 125 g ai/ha) | Plant response rating (scale of 0 to 100 where 0 is no effect and 100 is complete control) (velvetleaf; 250 g ai/ha)
